Reference: US20250270648A1, “MOLECULAR SIGNATURE FOR ASSESSING THE RESPONSIVENESS OF CANCER TO MITOCHONDRIA-TARGETED ANTIOXIDANTS” (UNIVERSITÉ CATHOLIQUE DE LOUVAIN, priority 2021, published 2025)

Experiments:
[1] = tested on: MDA-MB-231 human triple-negative breast cancer; assay: Spontaneous metastasis and recurrence, orthotopic MDA-MB-231 model; type: in vivo, mouse; settings: MitoQ 20 mg/kg daily oral
Experimental: (§1) For spontaneous metastasis assays using human breast cancer cells, MDA-MB-231, SkBr3 or MDA-MB-436 cells were prepared in medium containing 10% growth factor-reduced Matrigel (Corning®, cat #734-11-01). Five weeks-old female Rj:NMRI-Foxnlnu/nu mice (Janvier) were injected with 10^6 cancer cells in 100 μL of solution in the left second mammary fat pad. After tumor take (72 h), mice were daily treated ±20 mg/Kg MitoQ by oral gavage. Tumor size was measured once per week with an electronic caliper. Four weeks after treatment initiation, primary tumors were surgically removed and processed for RT-qPCR. Tumor recurrence was monitored until recurred tumors in the vehicle group reached about […], i.e. 24 days after surgery. At this time point, mice were sacrificed and their lungs collected and fixed in PFA 4% for immunocytochemistry.
Collected lungs were processed for immunohistochemistry as previously shown. They were stained for Cytokeratin 19 (CK19) using a primary rabbit recombinant anti-CK19 antibody (Abcam®, cat #ab76539) and a secondary Envision anti-rabbit antibody coupled to HRP (Dako®, cat #K4003), and counter-stained with H&E. Images of whole lung slides were acquired on a SCN400 Slide Scanner (Leica®) and analyzed with the QuPath Software (0.1.2). Quantification was performed according to Chang and Erler (Adv Exp Med Biol, 2016; 899, 245-251), and the number of lung metastases was proportional to the positive areas of CK19 staining.

[2] = tested on: MDA-MB-231 primary tumors in mice; assay: RT-qPCR of resected primary tumors; type: in vivo, mouse; settings: MitoQ 20 mg/kg daily oral
Experimental: Total mRNA from MDA-MB-231, SkBr3 and MDA-MB-436 cells treated ±MitoQ for 48 h was extracted using the NucleoSpin RNA Kit (Macherey-Nagel®). Total mRNA from primary tumors was extracted with Tri reagent (Molecular Research Center®, Cat #TR118). mRNAs were quantified by the Qubit BR dsRNA assay kit (Thermo Fisher Scientific®), and mRNA integrity was evaluated on an Agilent® 2100 Bioanalyzer with the RNA 6000 nano kit (Agilent®). It was reverse transcribed in complementary DNA using the High-Capacity cDNA Reverse Transcription Kit (Applied Biosystems®, cat #4368814) according to manufacturer's protocol. Complementary DNA (500 ng) was amplified by real time quantitative PCR (RT-qPCR) using the low ROX SYBR Master Mix dTTP Blue (Eurogentec®) and primers listed in Table 5 and Table 6 on a ViiA 7 Real-Time PCR System (Thermo Fisher Scientific®). Gene expression was normalized to β-actin gene expression.
as §1

MDA-MB-231 cells [3] = assay: Intracellular ATP, CellTiter-Glo; type: cell-based, human; settings: MitoQ 100 nM, 48 h
Experimental: Intracellular ATP levels were measured after 48 h of treatment ±MitoQ, using the CellTiter-Glo Luminescent Viability Assay (Promega®) on a Glomax 96 microplate luminometer (Promega®) following manufacturer's instructions. Results were normalized to cell number.

[4] = tested on: murine 4T1 breast cancer cells; assay: Cell viability, CellTiter-Glo; type: cell-based, mouse; settings: increasing doses of DXR ±100 nM MitoQ, 48 h
Experimental: Cells were plated in 96-well plates and left to adhere for 16 hours. In order to avoid reaching full confluence at the endpoint, starting cell count was defined according to doubling time and the duration of the experiment. Following adhesion, cells were treated with the indicated compounds for 48 h, after which staining was done with a CellTiter-Glo Luminescent Cell Viability assay (Promega®, catalogue #G7570), according to supplier's instructions. This method is based on the quantification of intracellular ATP levels.

4T1 cells = assay: Invasion, Matrigel-coated transwells; type: cell-based, mouse; settings: 0.1 μg/mL DXR + 100 nM MitoQ
Experimental: Previous to migration and invasion assays, cells were pretreated with the indicated amounts of drugs for 16 h, and left to recover for 6 h in full culture medium. Migration assays were performed in a NeuroProbe® standard 48-well chemotaxis chamber according to manufacturer's instructions. Briefly, the bottom chamber was filled with DMEM containing 0.5% serum as a chemo-attractant. Fifty thousand cells were seeded in the upper chamber in the same medium but without serum ±MitoQ where indicated, and allowed to migrate overnight through an 8-μm pore-size polycarbonate membrane. A similar stimulation protocol was used for invasion assays, with the difference of using Matrigel-coated transwells (Corning®). With MCF7 cells, membranes were previously incubated for 30 min with a solution of Vitronectin 10 μg/ml (Sigma-Aldrich®, #SRP3186). Migrated/invaded cells were fixed and stained with 100 μl of a 0.23% crystal violet solution (Sigma-Aldrich®, #C0775) for 10 min before counting on a SpectraMax™ i3 spectrophotometer equipped with a MiniMax imaging cytometer, using the SoftMax Pro software. Data were normalized to vehicle-treated cells (control).

SkBr3 cells = assay: Glucose consumption and lactate production, enzymatic assays on CMA600; type: cell-based, human; settings: indicated doses of MitoQ, 48 h
Experimental: (§2) Glucose and lactate concentrations were measured in cell supernatants collected after 48 h of culture ±MitoQ, using specific enzymatic assays on a CMA600 analyzer (Aurora Borealis®), as previously described in Sonveaux et al. (J Clin Invest; 2008; 118, 3930-3942). All data were normalized by total protein content (Bio-Rad® Protein Assay).

MDA-MB-231 cells [5] = assay: as above; type: cell-based, human; settings: 48 h
Experimental: as §2

COC1=C(OC)C(=O)C(CCCCCCCCCC[P+](c2ccccc2)(c2ccccc2)c2ccccc2)=C(C)C1=O [MitoQ]
primary tumor growth ([1]; P=0.3150): not significantly affected
recurrence-free survival ([1]; after surgery): significantly improved
mice with no metastasis ([1]; day +56, 9.5% in the control group): 75.0%
metastatic dissemination (lungs) ([1]; sacrifice day +56): highly significantly prevented
animals in which primary tumors relapsed after surgery ([1]; surgery day +32, 100% in the control group): 25%
tumor samples in which PSAT1 expression was induced [2]: 100%
PHGDH-1 transcript upregulated in response to MitoQ: Validated in vivo ([2]; tumors resected day +32): + (Repressed or induced by ≥2-fold with P < 0.01 and MDA-MB-231 primary tumors in mice.)
PSAT1 transcript upregulated in response to MitoQ: Validated in vivo ([2]; tumors resected day +32): + (Repressed or induced by ≥2-fold with P < 0.01 and MDA-MB-231 primary tumors in mice.)
SERPINE1 transcript upregulated in response to MitoQ: Validated in vivo ([2]; tumors resected day +32): + (Repressed or induced by ≥2-fold with P < 0.01 and MDA-MB-231 primary tumors in mice.)
SLC7A11 transcript upregulated in response to MitoQ: Validated in vivo ([2]; tumors resected day +32): + (Repressed or induced by ≥2-fold with P < 0.01 and MDA-MB-231 primary tumors in mice.)
TXNRD1 transcript upregulated in response to MitoQ: Validated in vivo ([2]; tumors resected day +32): + (Repressed or induced by ≥2-fold with P < 0.01 and MDA-MB-231 primary tumors in mice.)
fold induction at 20 mg/kg ([2]; Mus musculus, MDA-MB-231, P<0.01, read-out: fold induction of PHGDH-1, SLC7A11, SERPINE1, TXNRD1 and PSAT1 (each independently)): ≥ 2
ATP production (MDA-MB-231 cells [3]): overall decrease
DXR-induced cell killing [4]: did not interfere
DXR-stimulated cell invasion (4T1 cells): inhibited
glycolytic compensation with increasing dose (SkBr3 cells): saturated
glycolytic rate (glucose consumption, lactate production) (MDA-MB-231 cells [5]; MitoQ 100 nM): increasing
glycolytic compensation with increasing dose (MDA-MB-231 cells [5]; indicated doses of MitoQ): saturated
